The values below come from patent US20140004243A1, “SALTY TASTE ENHANCER” (AJINOMOTO CO., INC., priority 2011, published 2014).

The experiment concerns the target T1, Human ENaC δ, β and γ subunit (Homo sapiens, UniProt P51168+P51170+P51172).
T1 construct: expressed in transfected cells; host or cells: Xenopus laevis (African clawed frog) oocytes injected with cRNA
T1 sequence (P51172 1-802): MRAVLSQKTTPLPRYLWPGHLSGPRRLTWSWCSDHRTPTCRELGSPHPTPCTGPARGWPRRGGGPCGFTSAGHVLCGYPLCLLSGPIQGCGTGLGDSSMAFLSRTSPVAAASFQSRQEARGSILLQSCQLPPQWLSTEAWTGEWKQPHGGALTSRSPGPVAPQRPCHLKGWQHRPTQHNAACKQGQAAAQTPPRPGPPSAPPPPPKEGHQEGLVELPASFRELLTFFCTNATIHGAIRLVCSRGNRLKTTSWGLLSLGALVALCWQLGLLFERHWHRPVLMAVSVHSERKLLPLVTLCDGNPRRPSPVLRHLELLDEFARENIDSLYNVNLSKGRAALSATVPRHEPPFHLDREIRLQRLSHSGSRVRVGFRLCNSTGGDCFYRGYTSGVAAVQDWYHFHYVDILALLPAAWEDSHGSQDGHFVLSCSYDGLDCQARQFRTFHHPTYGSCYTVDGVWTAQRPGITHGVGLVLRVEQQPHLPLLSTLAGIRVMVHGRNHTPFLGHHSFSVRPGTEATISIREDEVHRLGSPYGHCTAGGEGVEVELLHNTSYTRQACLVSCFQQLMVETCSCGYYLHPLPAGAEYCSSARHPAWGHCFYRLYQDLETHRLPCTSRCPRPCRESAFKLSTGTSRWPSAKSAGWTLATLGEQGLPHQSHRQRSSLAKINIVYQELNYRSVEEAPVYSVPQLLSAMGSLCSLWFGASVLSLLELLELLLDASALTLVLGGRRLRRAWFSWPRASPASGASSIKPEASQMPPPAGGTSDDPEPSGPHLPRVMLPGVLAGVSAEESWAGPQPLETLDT
T1 sequence (P51168 1-640): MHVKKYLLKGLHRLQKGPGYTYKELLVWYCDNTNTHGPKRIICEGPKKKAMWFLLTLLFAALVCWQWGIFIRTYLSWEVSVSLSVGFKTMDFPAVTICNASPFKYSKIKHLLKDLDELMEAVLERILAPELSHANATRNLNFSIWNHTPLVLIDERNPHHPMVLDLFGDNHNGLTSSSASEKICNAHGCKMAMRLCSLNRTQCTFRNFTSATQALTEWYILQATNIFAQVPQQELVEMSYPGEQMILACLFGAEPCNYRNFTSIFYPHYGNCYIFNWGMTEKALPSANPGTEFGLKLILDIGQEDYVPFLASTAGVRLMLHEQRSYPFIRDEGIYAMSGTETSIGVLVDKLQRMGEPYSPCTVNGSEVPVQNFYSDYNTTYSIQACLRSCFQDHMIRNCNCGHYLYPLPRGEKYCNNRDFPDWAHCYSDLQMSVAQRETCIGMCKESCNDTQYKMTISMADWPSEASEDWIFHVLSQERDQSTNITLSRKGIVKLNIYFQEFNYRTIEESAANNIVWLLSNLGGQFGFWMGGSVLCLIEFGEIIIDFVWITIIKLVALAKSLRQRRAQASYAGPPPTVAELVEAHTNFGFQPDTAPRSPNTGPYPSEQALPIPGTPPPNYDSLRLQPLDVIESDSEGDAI
T1 sequence (P51170 1-649): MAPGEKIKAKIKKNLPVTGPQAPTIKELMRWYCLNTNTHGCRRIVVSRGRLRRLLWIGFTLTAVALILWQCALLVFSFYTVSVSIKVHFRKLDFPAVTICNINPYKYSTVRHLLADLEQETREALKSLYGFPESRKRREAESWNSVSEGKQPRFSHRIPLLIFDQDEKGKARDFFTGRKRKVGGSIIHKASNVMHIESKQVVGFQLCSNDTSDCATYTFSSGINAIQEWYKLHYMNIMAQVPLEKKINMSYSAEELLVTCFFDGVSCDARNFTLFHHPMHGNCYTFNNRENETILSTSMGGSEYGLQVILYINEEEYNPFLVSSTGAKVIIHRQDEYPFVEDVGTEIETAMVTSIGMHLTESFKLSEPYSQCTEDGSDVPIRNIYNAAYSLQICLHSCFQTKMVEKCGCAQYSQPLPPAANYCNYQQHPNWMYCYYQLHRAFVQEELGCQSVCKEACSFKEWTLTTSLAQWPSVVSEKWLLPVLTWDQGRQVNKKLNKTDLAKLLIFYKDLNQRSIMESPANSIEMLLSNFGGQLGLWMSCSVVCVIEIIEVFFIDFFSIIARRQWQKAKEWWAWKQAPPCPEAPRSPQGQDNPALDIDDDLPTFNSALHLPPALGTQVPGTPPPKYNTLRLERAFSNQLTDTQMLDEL
Briefly: Measurement of ENaC activation potency (MED) in ENaC-expressing oocyte, Two Electrode Voltage Clamp. In kind it is cell-based. Conditions: minimum effective dose at which current started to increase; ENaC-expressing African clawed frog oocyte; smaller MED = higher ENaC activation potency. On the procedure: ENaC activation current value, namely, the inward current in ENaC-expressing oocyte was measured as follows.
According to the method described in Motonao Nakamura, Takao Shimizu: Experiment of African clawed frog oocyte, Experimental Medicine Vol. 11, No. 3, 224-232 (1993), oocyte was collected from African clawed frog, […], and the current value was measured by a Two Electrode Voltage Clamp technique. In the present invention, ND96 (96 mM NaCl, 2 mM KCl, 1 mM MgCl2, 5 mM Hepes, 1.8 mM CaCl2, pH 7.6) was used instead of MBS buffer in the above-mentioned document. Injector NANOLITER 2000 manufactured by World Precision Instruments was used for microinjection, OpusXpress 6000A manufactured by Molecular Devices was used for current value measurement by a Two Electrode Voltage Clamp technique, and Clampfit 10.2 software manufactured by Molecular Devices was used for data analysis.
Human ENaC δ, β and γ subunit genes shown by SEQ ID NOs: 1, 2 and 3, respectively, in the Sequence Listing were each cloned into a plasmid vector, and used as a template DNA for cRNA synthesis. cRNA was synthesized using MEGAscript kit manufactured by Ambion and according to the method of the manual of the manufacturer.
A mixture of the same amount of ENaC […] cRNA (0.4 to 0.8 μg/μL), and β and γ subunits cRNA (0.4 μg/μL) was injected into the oocyte of African clawed frog at […] per oocyte, and the oocyte was cultured for 16 hr-72 hr. Thereafter, the oocyte was set on a measuring apparatus OpusXpress 6000A, the electrodes were inserted into the oocyte, the voltage was clamped at a level lower by −30 mV than the resting membrane potential by a Two Electrode Voltage Clamp technique, and the current value was measured.
To measure the ENaC activation potency, oocyte was stimulated with each test compound, and the minimum effective dose (hereinafter to be abbreviated as MED) of the compound at the time point when the electric current started to increase was measured. In this case, whichever smaller value of the minimum effective dose of the stimulation compound that increased the current value by not less than 10%, and the minimum effective concentration of the compound that increased, by not less than 25%, the electric current increase value due to the stimulation by 5 μM capsazepine (CAS NO.: 138977-28-3), as compared to the current value before addition of the compound and without stimulation, was taken as MED. A smaller MED means higher ENaC activation potency.
Each test compound was directly dissolved in ND96, or first dissolved in dimethyl sulfoxide (DMSO) to 100 mM, and then prepared by diluting the solution with ND96 to a concentration used for the evaluation. The concentration of the test compound in ND96 was prepared to various concentrations within the range of 0.1 nM to 300 μm.
ND96 as a perfusion fluid was flown at a rate of 0.5 mL/min through the measuring apparatus OpusXpress 6000A on which ENaC-expressing oocyte was set, the perfusion fluid was temporarily stopped every 3 minutes to add a test compound solution (0.25 mL) dissolved in ND96 at a rate of 0.5 mL/min. In this way, the test compound was contacted with ENaC-expressing oocyte, and whether ENaC is activated by the compound was examined by measuring the current value. After addition of the test compound, feeding of the perfusion fluid was resumed to wash away the compound to be ready for the next addition of the compound.
The compound was added successively from a low concentration to a high concentration to stimulate ENaC-expressing oocyte. The concentrations actually added was, for example, 1 nM, 3 nM, 10 nM, 30 nM, 100 nM, 300 nM; 1 μM, 3 μM, 10 μm, 30 μm, 100 μm, 300 μm; 1.2 μM, 6 μM, 30 μm, 150 μm of one test compound. The compound was added from low concentrations to high concentrations at 3 min intervals. […]
In general terms: Two-electrode voltage clamp holds a large cell at a set potential and records current.
In turn, `COc1cccc(OC)c1NC(=S)NCCc1c[nH]c2ccc(O)cc12` [Example 126] registered an MED of 10 µM.
The figure for `S=C(CCCc1ccccc1)NCc1ccccc1` [Example 80, N-benzyl-4-phenylbutanethioamide] is 10 µM; for `O=[N+]([O-])c1ccc(CNC(=S)NCCc2ccccc2)cc1` [Example 64] it is 30 µM.
Turning to `Oc1ccccc1CCNC(=S)NCc1ccccc1` [Example 62], the MED is 1.1 µM.
The compound `C[C@@H](NC(=S)NCC(O)c1cc(Cl)ccc1O)c1cccc(O)c1` (stereo partly shown) [Example 115] registered an MED of 0.06 to 0.1 µM.
Then `COc1cccc(OC)c1/C=N/NC(=S)N[C@H](C)c1ccccc1` [Example 92, (E)-1-(2,6-dimethoxybenzylidene)-4-((R)-1-phenylethyl)thiosemicarbazide], with 30 µM; and `Oc1ccc(CNC(=S)NCCc2ccccc2)cc1O` [Example 40, 1-(3,4-dihydroxybenzyl)-3-(2-phenylethyl)thiourea], with 1 µM; and `OC[C@H](Cc1ccccc1)NC(=S)NCc1ccccc1` [Example 57], with 1 µM.
The figure for `Cc1ccc(S(=O)(=O)Nc2cccc(CNC(=S)NCCc3ccccc3)c2)cc1` [Example 87] is 10 µM; for `O[C@H](CNC(=S)NCc1ccccc1)c1ccccc1` [Example 72] it is 1 µM.
On to `S=C(NCCc1ccccc1)NCc1ccc2c(c1)OCO2` [Example 26], for which the MED turned out to be 3.3 µM.
Then `C[C@@H](NC(=S)NNCc1c(O)cccc1O)c1ccccc1` [Example 95], with 3 to 10 µM.
Regarding `S=C(NCCc1ccccc1)NCC12CC3CC(CC(C3)C1)C2` [Example 32], the MED is 10 µM.
Then `COc1ccc([C@@H](C)NC(=S)NCCc2ccccc2O)cc1OC` [Example 100], with 1 µM; and `Cc1ccc(O)c(C(O)CNC(=S)N[C@H](C)c2cccc(O)c2)c1` (stereo partly shown) [Example 113], with 0.3 µM; and `S=C(NCCc1c[nH]c2ccccc12)Nc1ccccc1` [Example 34], with 10 µM.
The figure for `S=C(NCc1ccccc1)N1CCc2ccccc2C1` [Example 27] is 10 µM.
Then `Oc1ccc(CCNC(=S)NCc2ccccc2)cc1` [Example 17], with 3 µM.
Regarding `Nc1cccc(CNC(=S)NCCc2ccccc2)c1` [Example 79, 1-(3-aminobenzyl)-3-(2-phenylethyl)thiourea], the MED was determined as 1 µM.
`S=C(NCCc1ccccc1Cl)NCc1ccccc1` [Example 73] displayed an MED of 3 to 10 µM.
`C[C@@H](NC(=S)Nc1c(O)cccc1O)c1ccccc1` [Example 91] had an MED of 1 µM.
For `CC(C)(C)OC(=O)Nc1cccc(CNC(=S)NCCc2ccccc2)c1` [Example 78, tert-butyl 3-{[3-(2-phenylethyl)thioureido]methyl}phenylcarbamate], the MED worked out at 10 µM.
Then `C[C@@H](NC(=S)NCCc1ccccc1O)c1cccc(O)c1` [Example 89, 1-[2-(2-hydroxyphenyl)ethyl]-3-[(R)-1-(3-hydroxyphenyl)ethyl]thiourea], with 0.06 µM; and `Oc1ccccc1CNC(=S)NCCc1ccccc1` [Example 61], with 30 µM.
For `C[C@H](NC(=S)N[C@H](C)c1ccccc1)c1ccccc1` [Example 24], the MED was found to be 3.3 µM.
`S=C(CCc1ccccc1)NCCc1ccccc1` [Example 81] yielded an MED of 10 µM.
`S=C(NCCc1ccccc1)N[C@H](COCc1ccccc1)c1ccccc1` [Example 76] returned an MED of 10 µM.
The figure for `C[C@@H](NC(=S)Nc1ccccc1C(=O)O)c1cccc(O)c1` [Example 118] is 0.1 µM; for `CCC[C@@H](NC(=S)NCCc1ccccc1O)c1ccccc1` [Example 99] it is 10 µM; for `COc1ccccc1CNC(=S)NCCc1ccccc1` [Example 28] it is 1 to 3 µM.
The figure for `OC[C@H](NC(=S)NCCc1ccccc1)c1ccccc1` [Example 50] is 3 µM.
As for `COc1cccc(CCNC(=S)NCc2ccccc2)c1` [Example 60], the MED came out at 10 µM.
For `S=C(NCCc1ccccc1)NCc1cccnc1` [Example 31], the MED is 1 µM.
The figure for `CN(CCc1ccccc1)C(=S)NCc1ccccc1` [Example 66] is 3 to 10 µM.
